Data: patent publication US20180243273A1, “Composition for Intravesical Administration for Treating Bladder Pain” (priority 2017, published 2018)

Assay: Storage of compositions with/without nitrogen-gassing and ascorbic acid, assay and impurities
Format: physicochemical
Conditions: for Assay / Impurities: phosphate buffer
Description: A possible beneficial effect of nitrogen-gassing during manufacturing and storage was assessed. Selected compositions were manufactured by dissolution of API via stirring for 24 h and stored after treatment with/without nitrogen at 25° C. or 6° C. for up to 28 days.
The manufactured batches consisted of phosphate buffer and vitamin E TPGS and were compared to compositions containing ascorbic acid 1%, additionally. API was used at 0.01 wt.-%, 0.02 wt.-% or 0.04 w.-%. The compositions were saturated with API, where 10 mg, 20 mg or 40 mg were dissolved in 100 g buffer containing 0.5 wt.-%, wt.-1% or 2 wt.-% vitamin E TPGS, respectively. The compositions were transferred into polystyrene bottles and stored at 25° C. or 6° C. A part of the compositions was treated with nitrogen during manufacturing and gassed with nitrogen prior to sealing (see FIG. 18). The compositions were tested for assay and purity of API after manufacturing, as well as after 7, 14 and 28 days.

[1] = vitamin E TPGS 1%, no Asc., N2 +, API 0.02%, 25° C., t = 28 d
[2] = vitamin E TPGS 1%, no Asc., N2 +, API 0.02%, t = 0
[3] = vitamin E TPGS 1%, no Asc., N2 −, API 0.02%, 6° C., t = 7 d
[4] = vitamin E TPGS 1%, no Asc., N2 −, API 0.02%, 6° C., t = 14 d
[5] = vitamin E TPGS 1%, no Asc., N2 −, API 0.02%, 6° C., t = 28 d
[6] = vitamin E TPGS 1%, no Asc., N2 −, API 0.02%, 25° C., t = 7 d
[7] = vitamin E TPGS 1%, no Asc., N2 −, API 0.02%, 25° C., t = 14 d
[8] = vitamin E TPGS 1%, no Asc., N2 −, API 0.02%, 25° C., t = 28 d
[9] = vitamin E TPGS 1%, no Asc., N2 −, API 0.02%, t = 0
[10] = vitamin E TPGS 2%, Asc. 1%, N2 +, API 0.04%, 6° C., t = 7 d
[11] = vitamin E TPGS 2%, Asc. 1%, N2 +, API 0.04%, 6° C., t = 14 d
[12] = vitamin E TPGS 2%, Asc. 1%, N2 +, API 0.04%, 6° C., t = 28 d
[13] = vitamin E TPGS 2%, Asc. 1%, N2 +, API 0.04%, 25° C., t = 7 d
[14] = vitamin E TPGS 2%, Asc. 1%, N2 +, API 0.04%, 25° C., t = 14 d
[15] = vitamin E TPGS 2%, Asc. 1%, N2 +, API 0.04%, 25° C., t = 28 d
[16] = vitamin E TPGS 2%, Asc. 1%, N2 +, API 0.04%, t = 0
[17] = vitamin E TPGS 2%, Asc. 1%, N2 −, API 0.04%, 6° C., t = 7 d
[18] = vitamin E TPGS 2%, Asc. 1%, N2 −, API 0.04%, 6° C., t = 14 d
[19] = vitamin E TPGS 2%, Asc. 1%, N2 −, API 0.04%, 6° C., t = 28 d
[20] = vitamin E TPGS 2%, Asc. 1%, N2 −, API 0.04%, 25° C., t = 7 d
[21] = vitamin E TPGS 2%, Asc. 1%, N2 −, API 0.04%, 25° C., t = 14 d
[22] = vitamin E TPGS 2%, Asc. 1%, N2 −, API 0.04%, 25° C., t = 28 d
[23] = vitamin E TPGS 2%, Asc. 1%, N2 −, API 0.04%, t = 0
[24] = vitamin E TPGS 2%, no Asc., N2 +, API 0.04%, 6° C., t = 7 d
[25] = vitamin E TPGS 2%, no Asc., N2 +, API 0.04%, 6° C., t = 14 d
[26] = vitamin E TPGS 2%, no Asc., N2 +, API 0.04%, 6° C., t = 28 d
[27] = vitamin E TPGS 2%, no Asc., N2 +, API 0.04%, 25° C., t = 7 d
[28] = vitamin E TPGS 2%, no Asc., N2 +, API 0.04%, 25° C., t = 14 d
[29] = vitamin E TPGS 2%, no Asc., N2 +, API 0.04%, 25° C., t = 28 d
[30] = vitamin E TPGS 2%, no Asc., N2 +, API 0.04%, t = 0
[31] = vitamin E TPGS 2%, no Asc., N2 −, API 0.04%, 6° C., t = 7 d
[32] = vitamin E TPGS 2%, no Asc., N2 −, API 0.04%, 6° C., t = 14 d
[33] = vitamin E TPGS 2%, no Asc., N2 −, API 0.04%, 6° C., t = 28 d
[34] = vitamin E TPGS 2%, no Asc., N2 −, API 0.04%, 25° C., t = 7 d
[35] = vitamin E TPGS 2%, no Asc., N2 −, API 0.04%, 25° C., t = 14 d
[36] = vitamin E TPGS 2%, no Asc., N2 −, API 0.04%, 25° C., t = 28 d
[37] = vitamin E TPGS 2%, no Asc., N2 −, API 0.04%, t = 0

CN(C)[C@]1(c2cccc(F)c2)CC[C@]2(CC1)c1[nH]c3ccccc3c1CCN2C(=O)/C=C/c1ccccc1 [API, cis-(E)-4-(3-fluorophenyl)-2′,3′,4′,9′-tetrahydro-N,N-dimethyl-2′-(1-oxo-3-phenyl-2-propenyl)-spiro[cyclohexane-1,1′[1H]-pyrido[3,4-b]indol]-4-amine]
Assay [1]: 93.95 µg/mL | Impurities [1]: 0.85 % (a/a) | Assay [2]: 93.15 µg/mL | Impurities [2]: 0.63 % (a/a) | Assay [3]: 92.96 µg/mL | Impurities [3]: 0.66 % (a/a) | Assay [4]: 93.12 µg/mL | Impurities [4]: 0.82 % (a/a) | Assay [5]: 93.21 µg/mL | Impurities [5]: 1.15 % (a/a) | Assay [6]: 93.12 µg/mL | Impurities [6]: 0.74 % (a/a) | Assay [7]: 93.69 µg/mL | Impurities [7]: 1.01 % (a/a) | Assay [8]: 93.67 µg/mL | Impurities [8]: 0.80 % (a/a) | Assay [9]: 92.32 µg/mL | Impurities [9]: 0.63 % (a/a) | Assay [10]: 218.73 µg/mL | Impurities [10]: 0.72 % (a/a) | Assay [11]: 218.92 µg/mL | Impurities [11]: 0.95 % (a/a) | Assay [12]: 219.23 µg/mL | Impurities [12]: 0.68 % (a/a) | Assay [13]: 209.88 µg/mL | Impurities [13]: 1.22 % (a/a) | Assay [14]: 210.66 µg/mL | Impurities [14]: 1.08 % (a/a) | Assay [15]: 190.68 µg/mL | Impurities [15]: 1.54 % (a/a) | Assay [16]: 217.91 µg/mL | Impurities [16]: 0.62 % (a/a) | Assay [17]: 222.15 µg/mL | Impurities [17]: 0.75 % (a/a) | Assay [18]: 226.12 µg/mL | Impurities [18]: 0.85 % (a/a) | Assay [19]: 225.09 µg/mL | Impurities [19]: 0.79 % (a/a) | Assay [20]: 222.30 µg/mL | Impurities [20]: 0.92 % (a/a) | Assay [21]: 213.85 µg/mL | Impurities [21]: 1.58 % (a/a) | Assay [22]: 197.06 µg/mL | Impurities [22]: 1.67 % (a/a) | Assay [23]: 218.96 µg/mL | Impurities [23]: 0.63 % (a/a) | Assay [24]: 216.81 µg/mL | Impurities [24]: 0.53 % (a/a) | Assay [25]: 216.54 µg/mL | Impurities [25]: 0.71 % (a/a) | Assay [26]: 216.93 µg/mL | Impurities [26]: 0.46 % (a/a) | Assay [27]: 215.81 µg/mL | Impurities [27]: 0.57 % (a/a) | Assay [28]: 215.34 µg/mL | Impurities [28]: 0.82 % (a/a) | Assay [29]: 217.45 µg/mL | Impurities [29]: 0.72 % (a/a) | Assay [30]: 214.85 µg/mL | Impurities [30]: 0.58 % (a/a) | Assay [31]: 214.61 µg/mL | Impurities [31]: 0.37 % (a/a) | Assay [32]: 214.30 µg/mL | Impurities [32]: 0.72 % (a/a) | Assay [33]: 214.68 µg/mL | Impurities [33]: 0.49 % (a/a) | Assay [34]: 214.19 µg/mL | Impurities [34]: 0.54 % (a/a) | Assay [35]: 213.44 µg/mL | Impurities [35]: 0.80 % (a/a) | Assay [36]: 215.45 µg/mL | Impurities [36]: 0.67 % (a/a) | Assay [37]: 212.92 µg/mL | Impurities [37]: 0.60 % (a/a) | sum of all impurities (storage temperature of 6° C., all compositions, up to 28 days): below 1 % (a/a)
